Measurements from paper PMC6933707, “Palmitoylethanolamide counteracts substance P-induced mast cell activation in vitro by stimulating diacylglycerol lipase activity” (Journal of Neuroinflammation, 2019).
Values joined by “and” are separate entries in the source; they are usually repeats but may differ in a detail not shown here. Equal values may be shown once.

Columns and labels:
Format in all cases: cell-based, rat
RBL-2H3 cells [1] = assay: LC-APCI-MS measurement of endogenous AEA, 2-AG and PEA levels; details: for increase of endogenous levels of 2-AG: 15 min
Method: RBL-2H3 cells (9 × 10^5 cells/well) were stimulated with SP (10 μM) and treated with PEA (10 μM) in the presence and absence of OMDM188 (10 μM), for 15 min at 37 °C in 5% CO2 atmosphere. After 15 min, cells and supernatants were collected and homogenized in a solution of CHCl3/CH3OH/Tris-HCl 50 mM pH 7.4 (2:1:1, v/v) containing 10 pmol of [^2H]8-AEA, [^2H]5-2-AG and [^2H]4-PEA as internal standards. The lipid-containing organic phase was dried down, weighed and pre-purified by open-bed chromatography on silica gel. Fractions obtained by eluting the column with a solution of CHCl3/CH3OH (90:10 by vol.) were analyzed by Liquid Chromatography-Atmospheric Pressure Chemical Ionization-Mass Spectrometry (LC-APCI-MS) using a Shimadzu (Shimadzu, Kyoto, Japan) HPLC apparatus (LC-10ADVP) coupled to a Shimadzu (LCMS-2020) quadrupole MS via a Shimadzu APCI interface. LC-APCI-MS analyses of 2-AG and PEA were carried out in the selected ion monitoring mode, using m/z values of 356 and 348 (molecular ions + 1 for deuterated and undeuterated AEA), 384.35 and 379.35 (molecular ions + 1 for deuterated and undeuterated 2-AG), and 304 and 300 (molecular ions + 1 for deuterated and undeuterated PEA). AEA, 2-AG and PEA levels were calculated on the basis of their area ratio with the internal deuterated standard signal areas, and their amounts (pmol) were normalized per mg of lipid extract.

RBL-2H3 cells [2] = assay: Quantitative real-time PCR of PEA/2-AG receptors and metabolic enzymes; details: cells stimulated 15 min with SP 10 μM or PEA 10 μM or both, vs unstimulated
Description: The mRNA expression of PEA target genes (Cnr1, Cnr2, Trpv1, Ppara, and Gpr55), as well as PEA and 2-AG biosynthetic (N-acyl phosphatidylethanolamine-specific phospholipase D, Napepld, Dagla and Daglb) and catabolic enzyme genes (fatty acid amide hydrolase, Faah; N-acylethanolamine-hydrolyzing acid amidase, Naaa; and monoacylglycerol lipase, Mgl), was studied by comparison of transcriptional expression in unstimulated RBL-2H3 cells (plated on 100 mm diameter Petri dishes) vs. the expression of these targets and enzymes in RBL-2H3 cells treated with PEA (10 μM), or stimulated with SP (10 μM) in the presence and absence of PEA (10 μM), for 15 min at 37 °C in 5% CO2 atmosphere. Total RNA was purified, quantified and reverse transcribed as previously reported. For each target, all mRNA sequences were aligned and common primers were designed (Table 1). Quantitative real-time PCR was performed by an iCycler-iQ5 in a 20 μl reaction mixture using 20 ng of cDNA. Assays were performed in quadruplicate (maximum ΔCt of replicate samples < 0.5). Optimized primers for SYBR-green analysis and optimum annealing temperatures were designed by the Allele-Id software version 7.0 (Biosoft International) and were synthesized (HPLC-purification grade) by MWG-Biotech. […] Results were expressed as fold expression compared with a reference condition (2^^−∆∆ct formula).

RBL-2H3 cells [3] = assay: β-Hexosaminidase release assay; details: 15 min
Method: RBL-2H3 cells were plated into 24-well culture dishes at a cell density of 2 × 10^5 cells per well, or into 6-well culture dishes at a cell density of 9 × 10^5 cells per well, for 1 day at 37 °C in 5% CO2 atmosphere. After 1 day, RBL-2H3 cells were stimulated with SP (10 μM) or vehicle (water) and incubated for 15 min at 37 °C in 5% CO2 atmosphere.
SP-stimulated RBL-2H3 cells (2 × 10^5 cells/well) were treated with PEA (0.1, 0.5, 1, and 10 μM) or vehicle (methanol, max 0.1%) for 15 min at 37 °C in 5% CO2 atmosphere. After 15 min, the supernatants (15 μl) were transferred to 96-well plates and incubated with 60 μl of substrate (1 mM p-nitrophenyl-N-acetyl-β-D-glucosaminide in citrate 0.05 M, pH 4.5) for 1 h at 37 °C. To determine the total amount of released β-hexosaminidase, the cells were lysed with 0.1% Triton X-100 and incubated with substrate using the same procedure as for the determination of the activity in the supernatants. The reaction was stopped by adding 150 μl of 0.1 M sodium bicarbonate buffer (pH 10.0), and the reaction product was monitored by measuring the optical density (OD) at 405 nm by using a reader GENios Pro (Tecan). The results were expressed as % of the total β-hexosaminidase content of the cells determined by cell lysis with 0.1% Triton X-100, and calculated by using the following formula: % degranulation = [ODsupernatant/(ODsupernatant + ODtriton x−100)] × 100.

CCCCCCCCCCCCCCCC(=O)NCCO [PEA, Palmitoylethanolamide]
increase of endogenous levels of 2-AG (RBL-2H3 cells [1]; PEA 10 μM alone, in the absence of SP, compared to vehicle-treated cells): 1.8 fold and ~ 2 fold
estimated increase of 2-AG concentration in cells (RBL-2H3 cells [1]; SP-stimulated cells treated with PEA 10 μM vs unstimulated cells): 0.5 µM
increase of endogenous levels of 2-AG (RBL-2H3 cells [1]; SP-stimulated cells treated with PEA 10 μM, compared to SP-stimulated cells treated with PEA vehicle): 1.6 fold and ~ 2 fold
increase of endogenous levels of 2-AG (RBL-2H3 cells [1]; SP-stimulated cells treated with PEA 10 μM, compared to cells only treated with vehicle): 1.4 fold
endogenous levels of AEA (RBL-2H3 cells [1]; SP-stimulated cells treated with PEA 10 μM, vs SP + PEA vehicle): no statistically significant increase
estimated concentration of 2-AG in cells (RBL-2H3 cells [1]; SP-stimulated cells treated with PEA 10 μM, estimated from 1 mg lipids per 10 mg (10 μl) cell pellet, 0.7 μM in unstimulated cells): about 1.2 μM
increase of levels of AEA (RBL-2H3 cells [1]; unstimulated cells following PEA treatment (discussion)): ~ 2 fold
endogenous levels of AEA (RBL-2H3 cells [1]; unstimulated cells treated with PEA alone 10 μM, vs vehicle): statistically significant increase
mRNA expression of Cnr2, Napepld, Naaa, Daglb, Faah and Mgl (RBL-2H3 cells [2]): no statistically significant change
β-hexosaminidase release (RBL-2H3 cells [3]; SP (10 μM)-stimulated cells, PEA 0.1, 0.5, 1 and 10 μM, concentration-dependent, vs SP + vehicle): strongly reduced
β-hexosaminidase release (RBL-2H3 cells [3]; substance alone 10 μM, vs vehicle-treated cells): No effect
